The supplement of paper PMC4862054
Values joined by “and” are separate entries in the source; they are usually repeats but may differ in a detail not shown here. Equal values may be shown once.

What was measured:
Conditions in all cases: incubation time: 72 h
CAL-148 [1] = assay: drug sensitivity score (DSS), CellTiter-Glo (DSS (AUC-based score)); higher = stronger drug effect (viability inhibition or cytotoxicity); extreme values may be limits of the assay
How it was run: (§1)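 Breast cancer cell lines, seeded as 20 µl suspension, were incubated 72 h with compound in 384-well plates at 5 concentrations in 10-fold steps over a 10,000-fold range set for each compound. Fluorescence from CellTox Green was read at 485/520 nm before CellTiter-Glo luminescence, which was read after 10 min at room temperature. Every plate was normalised to 0.1 % DMSO and a positive kill control, and the drug sensitivity score was taken from the area under the fitted dose-response curve.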

MDA-MB-436 [2] = assay: as above
How it was run: as §1

HCC1937 = assay: normalised viability (% of control), CellTiter-Blue; higher = more viable cells (about 100 = DMSO control)
How it was run: (§2)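 Compound dissolved in 5 µl medium was pre-loaded into 384-well plates, and breast cancer cell lines in 20 µl suspension were seeded on top and incubated 72 h. After adding 2.5 µl CellTiter-Blue reagent for 2 h at 37 °C, fluorescence was read at 560/590 nm. Plates were normalised to vehicle (100) and a positive kill control (0), with Z'-factor quality control. Each value is normalised viability at a single listed concentration from the series.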

CAL-120 = assay: as above
How it was run: as §2

HCC1143 = assay: as above
How it was run: as §2

MFM-223 = assay: as above
How it was run: as §2

MDA-MB-468 = assay: as above
How it was run: as §2

HDQ-P1 = assay: as above
How it was run: as §2

DU-4475 = assay: as above
How it was run: as §2

CAL-148 [3] = assay: as above
How it was run: as §2

CAL-51 = assay: as above
How it was run: as §2

MDA-MB-453 = assay: as above
How it was run: as §2

SK-BR-3 = assay: as above
How it was run: as §2

BT-549 = assay: as above
How it was run: as §2

Hs578T = assay: as above
How it was run: as §2

CAL-85-1 = assay: as above
How it was run: as §2

MDA-MB-436 [4] = assay: as above
How it was run: as §2

MDA-MB-231 = assay: as above
How it was run: as §2

BT-474 = assay: as above
How it was run: as §2

HCC1599 = assay: as above
How it was run: as §2

Cc1cc2c(F)c(Oc3ncnn4cc(OC[C@@H](C)O)c(C)c34)ccc2[nH]1 [Brivanib]
Conditions | drug sensitivity score
CAL-148 [1] | 0
MDA-MB-436 [2] | 0

normalised viability [%]
Conditions | 0.3 nM | 1 nM | 3 nM | 10 nM | 100 nM | 1000 nM
BT-474 | – | 112 | – | – | 117 | 94.5
BT-549 | – | 107 | – | – | 90.6 | 109
CAL-51 | 96.7 | – | 96.8 | 95.7 | – | –
CAL-85-1 | 88.4 | – | 86.2 | 89.1 | – | –
CAL-120 | – | 89.3 | – | – | 82.5 | 93.2
CAL-148 [3] | 92.7 | – | 90.8 | 93.1 | – | –
DU-4475 | 102 | – | 93.6 | 93.4 | – | –
HCC1143 | – | 85.2 | – | – | 83.3 | 84.3
HCC1599 | – | 87.1 | – | – | 100 | 116
HCC1937 | – | 87.8 | – | – | 104 | 97.6
HDQ-P1 | 94.9 | – | 115 | 96.3 | – | –
Hs578T | – | 98.1 | – | – | 109 | 95.7
MDA-MB-231 | – | 113 | – | – | 89.2 | 99.2
MDA-MB-436 [4] | – | 113 | – | – | 93 | 96.4
MDA-MB-453 | 99.6 | – | 110 | 101 | – | –
MDA-MB-468 | – | 93.7 | – | – | 111 | 112
MFM-223 | – | 95.5 | – | – | 92.8 | 97.8
SK-BR-3 | – | 98.8 | – | – | 112 | 113

CCCCCOC(=O)Nc1nc(=O)n([C@@H]2O[C@H](C)[C@@H](O)[C@H]2O)cc1F [Capecitabine]
Conditions | drug sensitivity score
CAL-148 [1] | 0
MDA-MB-436 [2] | 0.812

Conditions | normalised viability
BT-474, 10 nM | 124% and 104%
BT-474, 1000 nM | 120% and 108%
BT-474, 10000 nM | 124% and 105%
BT-549, 10 nM | 91.7% and 86.6%
BT-549, 1000 nM | 96% and 104%
CAL-51, 3 nM | 113% and 108%
CAL-51, 30 nM | 105% and 98.2%
CAL-51, 100 nM | 103%
CAL-85-1, 3 nM | 87.5% and 102%
CAL-85-1, 30 nM | 88.5% and 90.9%
CAL-85-1, 100 nM | 91.8% and 103%
CAL-120, 10 nM | 82.6% and 98.9%
CAL-120, 1000 nM | 83.9% and 100%
CAL-120, 10000 nM | 91.1% and 96.5%
CAL-148 [3], 3 nM | 91.9% and 96%
CAL-148 [3], 30 nM | 89.1% and 88.1%
CAL-148 [3], 100 nM | 92.8% and 107%
DU-4475, 3 nM | 91.8% and 93.5%
DU-4475, 30 nM | 83.6% and 88.7%
DU-4475, 100 nM | 90.9% and 114%
HCC1143, 10 nM | 77.9% and 97.9%
HCC1143, 1000 nM | 89.9% and 103%
HCC1143, 10000 nM | 84.2% and 91.9%
HCC1599, 10 nM | 99.6% and 100%
HCC1599, 10000 nM | 96.4% and 111%
HCC1937, 10 nM | 80.9% and 86%
HCC1937, 1000 nM | 88% and 75.8%
HCC1937, 10000 nM | 87.6% and 85.8%
HDQ-P1, 3 nM | 94.8% and 95.5%
HDQ-P1, 30 nM | 91.5%
HDQ-P1, 100 nM | 102% and 94.6%
Hs578T, 10 nM | 105% and 116%
Hs578T, 1000 nM | 101% and 104%
Hs578T, 10000 nM | 107% and 93.6%
MDA-MB-231, 10 nM | 94.2% and 74.2%
MDA-MB-231, 1000 nM | 108% and 87%
MDA-MB-231, 10000 nM | 110% and 97.4%
MDA-MB-436 [4], 1000 nM | 72.3% and 89%
MDA-MB-436 [4], 10000 nM | 83.6% and 89%
MDA-MB-453, 3 nM | 110% and 101%
MDA-MB-453, 30 nM | 95.9% and 104%
MDA-MB-453, 100 nM | 97% and 94%
MDA-MB-468, 10 nM | 106% and 131%
MDA-MB-468, 1000 nM | 108% and 104%
MDA-MB-468, 10000 nM | 104%
MFM-223, 10 nM | 83.5% and 100%
MFM-223, 1000 nM | 93.6% and 100%
MFM-223, 10000 nM | 90.6% and 99.6%
SK-BR-3, 10 nM | 107% and 86.8%
SK-BR-3, 1000 nM | 108% and 93.6%
SK-BR-3, 10000 nM | 78.4% and 85.5%

CC(C)C[C@H](NC(=O)[C@H](CCc1ccccc1)NC(=O)CN1CCOCC1)C(=O)N[C@@H](Cc1ccccc1)C(=O)N[C@@H](CC(C)C)C(=O)[C@@]1(C)CO1 [Carfilzomib]
Conditions | drug sensitivity score
CAL-148 [1] | 17.4
MDA-MB-436 [2] | 26.5

normalised viability [%]
Conditions | 0.3 nM | 1 nM | 3 nM | 10 nM | 100 nM | 1000 nM
BT-474 | – | 107 | – | – | 21.8 | 13.9
BT-549 | – | 90 | – | – | 6.79 | 5.9
CAL-51 | 111 | – | 102 | 81.4 | – | –
CAL-85-1 | 107 | – | 86 | 72.1 | – | –
CAL-120 | – | 100 | – | – | 4.54 | 2.9
CAL-148 [3] | 101 | – | 97.8 | 94.5 | – | –
DU-4475 | 100 | – | 88.3 | 64.4 | – | –
HCC1143 | – | 91.9 | – | – | 23.9 | 14.9
HCC1599 | – | 106 | – | – | 64.6 | 38.9
HCC1937 | – | 74 | – | – | 5.98 | 11
HDQ-P1 | 105 | – | 98.9 | 56.7 | – | –
Hs578T | – | 126 | – | – | 1.45 | 1.15
MDA-MB-231 | – | 105 | – | – | 2.47 | 7.05
MDA-MB-436 [4] | – | 96.8 | – | – | 6.97 | 10.9
MDA-MB-453 | 115 | – | 38.5 | 17.7 | – | –
MDA-MB-468 | – | 117 | – | – | 3.17 | 2.35
MFM-223 | – | 83.4 | – | – | 13 | 14.4
SK-BR-3 | – | 97.8 | – | – | 16.7 | 12.6

Nc1nc(Cl)nc2c1ncn2[C@@H]1O[C@H](CO)[C@@H](O)[C@@H]1F [Clofarabine]
Conditions | drug sensitivity score
CAL-148 [1] | 8.43
MDA-MB-436 [2] | 16

normalised viability [%]
Conditions | 3 nM | 10 nM | 30 nM | 100 nM | 1000 nM | 10000 nM
BT-474 | – | 106 | – | – | 101 | 102
BT-549 | – | 87.5 | – | – | 50.6 | 42.3
CAL-51 | 109 | – | 102 | 108 | – | –
CAL-85-1 | 95.8 | – | 90.4 | 82.6 | – | –
CAL-120 | – | 89.1 | – | – | 47.7 | 50.4
CAL-148 [3] | 82.6 | – | 87.8 | 83.3 | – | –
DU-4475 | 90.6 | – | 92.8 | 94.4 | – | –
HCC1143 | – | 74.5 | – | – | 52.4 | 45
HCC1599 | – | 106 | – | – | 87.5 | 71.6
HCC1937 | – | 92.6 | – | – | 28.9 | 26.9
HDQ-P1 | 105 | – | 106 | 88.9 | – | –
Hs578T | – | 98.1 | – | – | 67.3 | 61.5
MDA-MB-231 | – | 89.1 | – | – | 64.4 | 57.8
MDA-MB-436 [4] | – | 109 | – | – | 47.6 | 56
MDA-MB-453 | 102 | – | 105 | 97.9 | – | –
MDA-MB-468 | – | 98.5 | – | – | 39.5 | 20.5
MFM-223 | – | 92.6 | – | – | 85.3 | 86.2
SK-BR-3 | – | 93 | – | – | 41.9 | 35.6
